{"source": "the supplement of paper PMC10307832", "assay_in_all_cases": "relative viability (nuclei count vs DMSO), 5 days (fraction); higher = more cells survive", "key": {"[1]": {"compound": "C=C(c1ccc(C(=O)O)cc1)c1cc2c(cc1C)C(C)(C)CCC2(C)C [Bexarotene] + NC(=O)Nc1cc(-c2cccc(F)c2)sc1C(=O)N[C@H]1CCCNC1 [AZD7762] (partner 0.2 µM)", "method_in_brief": "(§1)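 Values are medians from duplicate plates. Each reflects relative viability, defined as the nuclei count of treated wells over that of vehicle wells. Lung cancer cell lines in 1536-well plates were pin-tool dosed one day after seeding with one drug alone or with a fixed anchor-drug dose plus five library-drug doses (not always all listed) in √10 steps, then fixed, stained and imaged at 4× after 5 days.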"}, "[2]": {"compound": "C=C(c1ccc(C(=O)O)cc1)c1cc2c(cc1C)C(C)(C)CCC2(C)C [Bexarotene] + Nc1nc2[nH]cc(CCc3ccc(C(=O)N[C@@H](CCC(=O)O)C(=O)O)cc3)c2c(=O)[nH]1 [Pemetrexed] (partner 0.2 µM)", "method_in_brief": "as §1"}, "[3]": {"compound": "C=C(c1ccc(C(=O)O)cc1)c1cc2c(cc1C)C(C)(C)CCC2(C)C [Bexarotene] + COc1cccc2cc(-c3nc([C@H]4CC[C@H](C(=O)O)CC4)n4ncnc(N)c34)[nH]c12 [OSI-027] (partner 0.5 µM)", "method_in_brief": "as §1"}, "[4]": {"compound": "C=C(c1ccc(C(=O)O)cc1)c1cc2c(cc1C)C(C)(C)CCC2(C)C [Bexarotene] + COc1cc2c(Oc3ccc(NC(=O)C4(C(=O)Nc5ccc(F)cc5)CC4)cc3F)ccnc2cc1OCCCN1CCOCC1 [Foretinib] (partner 0.25 µM)", "method_in_brief": "as §1"}}}
{"cell line": "NCI-H1648", "values": [{"measurement": "relative viability", "setting": "[1]; first compound 0.08 µM", "result": 0.615}, {"measurement": "relative viability", "setting": "[1]; first compound 0.253 µM", "result": 0.57}, {"measurement": "relative viability", "setting": "[1]; first compound 0.8 µM", "result": 0.623}, {"measurement": "relative viability", "setting": "[1]; first compound 2.53 µM", "result": 0.695}, {"measurement": "relative viability", "setting": "[1]; first compound 8 µM", "result": 0.627}, {"measurement": "relative viability", "setting": "[2]; first compound 0.08 µM", "result": 0.897}, {"measurement": "relative viability", "setting": "[2]; first compound 0.253 µM", "result": 0.738}, {"measurement": "relative viability", "setting": "[2]; first compound 0.8 µM", "result": 0.676}, {"measurement": "relative viability", "setting": "[2]; first compound 2.53 µM", "result": 0.585}, {"measurement": "relative viability", "setting": "[2]; first compound 8 µM", "result": 0.619}, {"measurement": "relative viability", "setting": "[3]; first compound 0.08 µM", "result": 0.272}, {"measurement": "relative viability", "setting": "[3]; first compound 0.253 µM", "result": 0.262}, {"measurement": "relative viability", "setting": "[3]; first compound 0.8 µM", "result": 0.27}, {"measurement": "relative viability", "setting": "[3]; first compound 2.53 µM", "result": 0.225}, {"measurement": "relative viability", "setting": "[3]; first compound 8 µM", "result": 0.255}]}
{"cell line": "HCC-44", "values": [{"measurement": "relative viability", "setting": "[1]; first compound 0.08 µM", "result": 0.978}, {"measurement": "relative viability", "setting": "[1]; first compound 0.253 µM", "result": 1.12}, {"measurement": "relative viability", "setting": "[1]; first compound 0.8 µM", "result": 0.927}, {"measurement": "relative viability", "setting": "[1]; first compound 2.53 µM", "result": 0.967}, {"measurement": "relative viability", "setting": "[1]; first compound 8 µM", "result": 0.964}, {"measurement": "relative viability", "setting": "[2]; first compound 0.08 µM", "result": 0.694}, {"measurement": "relative viability", "setting": "[2]; first compound 0.253 µM", "result": 0.738}, {"measurement": "relative viability", "setting": "[2]; first compound 0.8 µM", "result": 0.658}, {"measurement": "relative viability", "setting": "[2]; first compound 2.53 µM", "result": 0.741}, {"measurement": "relative viability", "setting": "[2]; first compound 8 µM", "result": 0.65}, {"measurement": "relative viability", "setting": "[3]; first compound 0.08 µM", "result": 0.58}, {"measurement": "relative viability", "setting": "[3]; first compound 0.253 µM", "result": 0.589}, {"measurement": "relative viability", "setting": "[3]; first compound 0.8 µM", "result": 0.553}, {"measurement": "relative viability", "setting": "[3]; first compound 2.53 µM", "result": 0.496}, {"measurement": "relative viability", "setting": "[3]; first compound 8 µM", "result": 0.502}]}
{"cell line": "NCI-H2228", "values": [{"measurement": "relative viability", "setting": "[2]; first compound 0.08 µM", "result": 0.36}, {"measurement": "relative viability", "setting": "[2]; first compound 0.253 µM", "result": 0.358}, {"measurement": "relative viability", "setting": "[2]; first compound 0.8 µM", "result": 0.365}, {"measurement": "relative viability", "setting": "[2]; first compound 2.53 µM", "result": 0.212}, {"measurement": "relative viability", "setting": "[2]; first compound 8 µM", "result": 0.376}, {"measurement": "relative viability", "setting": "[3]; first compound 0.08 µM", "result": 0.848}, {"measurement": "relative viability", "setting": "[3]; first compound 0.253 µM", "result": 0.639}, {"measurement": "relative viability", "setting": "[3]; first compound 0.8 µM", "result": 0.359}, {"measurement": "relative viability", "setting": "[3]; first compound 2.53 µM", "result": 0.568}, {"measurement": "relative viability", "setting": "[3]; first compound 8 µM", "result": 0.477}, {"measurement": "relative viability", "setting": "[4]; first compound 0.08 µM", "result": 0.971}, {"measurement": "relative viability", "setting": "[4]; first compound 0.253 µM", "result": 1.08}, {"measurement": "relative viability", "setting": "[4]; first compound 0.8 µM", "result": 0.698}, {"measurement": "relative viability", "setting": "[4]; first compound 2.53 µM", "result": 0.897}, {"measurement": "relative viability", "setting": "[4]; first compound 8 µM", "result": 0.837}]}
{"cell line": "ABC-1", "values": [{"measurement": "relative viability", "setting": "[1]; first compound 0.08 µM", "result": 0.729}, {"measurement": "relative viability", "setting": "[1]; first compound 0.253 µM", "result": 0.797}, {"measurement": "relative viability", "setting": "[1]; first compound 0.8 µM", "result": 0.747}, {"measurement": "relative viability", "setting": "[1]; first compound 2.53 µM", "result": 0.667}, {"measurement": "relative viability", "setting": "[1]; first compound 8 µM", "result": 0.876}, {"measurement": "relative viability", "setting": "[3]; first compound 0.08 µM", "result": 0.466}, {"measurement": "relative viability", "setting": "[3]; first compound 0.253 µM", "result": 0.582}, {"measurement": "relative viability", "setting": "[3]; first compound 0.8 µM", "result": 0.565}, {"measurement": "relative viability", "setting": "[3]; first compound 2.53 µM", "result": 0.362}, {"measurement": "relative viability", "setting": "[3]; first compound 8 µM", "result": 0.449}, {"measurement": "relative viability", "setting": "[4]; first compound 0.08 µM", "result": 0.991}, {"measurement": "relative viability", "setting": "[4]; first compound 0.253 µM", "result": 1.19}, {"measurement": "relative viability", "setting": "[4]; first compound 0.8 µM", "result": 1.13}, {"measurement": "relative viability", "setting": "[4]; first compound 2.53 µM", "result": 0.855}, {"measurement": "relative viability", "setting": "[4]; first compound 8 µM", "result": 1.08}]}
{"cell line": "COR-L23", "values": [{"measurement": "relative viability", "setting": "[2]; first compound 0.08 µM", "result": 0.198}, {"measurement": "relative viability", "setting": "[2]; first compound 0.253 µM", "result": 0.206}, {"measurement": "relative viability", "setting": "[2]; first compound 0.8 µM", "result": 0.198}, {"measurement": "relative viability", "setting": "[2]; first compound 2.53 µM", "result": 0.214}, {"measurement": "relative viability", "setting": "[2]; first compound 8 µM", "result": 0.202}, {"measurement": "relative viability", "setting": "[3]; first compound 0.08 µM", "result": 0.807}, {"measurement": "relative viability", "setting": "[3]; first compound 0.253 µM", "result": 0.883}, {"measurement": "relative viability", "setting": "[3]; first compound 0.8 µM", "result": 0.579}, {"measurement": "relative viability", "setting": "[3]; first compound 2.53 µM", "result": 0.679}, {"measurement": "relative viability", "setting": "[3]; first compound 8 µM", "result": 0.715}, {"measurement": "relative viability", "setting": "[4]; first compound 0.08 µM", "result": 0.999}, {"measurement": "relative viability", "setting": "[4]; first compound 0.253 µM", "result": 1.06}, {"measurement": "relative viability", "setting": "[4]; first compound 0.8 µM", "result": 0.908}, {"measurement": "relative viability", "setting": "[4]; first compound 2.53 µM", "result": 0.952}, {"measurement": "relative viability", "setting": "[4]; first compound 8 µM", "result": 1.05}]}
